This assay deals with T1, human iNOS (Homo sapiens, UniProt P35228).
T1 construct: expressed in transfected cells; host or cells: HEK293
Put plainly: DAN assay of nitric oxide production (hiNOS). The assay is classed as cell-based. Particulars: enzyme expressed in HEK293 cells transiently transfected with human iNOS. The gist of the method: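 Human iNOS transiently expressed in HEK293 cells; NO production quantified as nitrite via 2,3-diaminonaphthalene reaction forming fluorescent naphthotriazole.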

A word on the EC50: it is the concentration at which the effect is half-maximal.

T1 sequence (P35228 whole entry): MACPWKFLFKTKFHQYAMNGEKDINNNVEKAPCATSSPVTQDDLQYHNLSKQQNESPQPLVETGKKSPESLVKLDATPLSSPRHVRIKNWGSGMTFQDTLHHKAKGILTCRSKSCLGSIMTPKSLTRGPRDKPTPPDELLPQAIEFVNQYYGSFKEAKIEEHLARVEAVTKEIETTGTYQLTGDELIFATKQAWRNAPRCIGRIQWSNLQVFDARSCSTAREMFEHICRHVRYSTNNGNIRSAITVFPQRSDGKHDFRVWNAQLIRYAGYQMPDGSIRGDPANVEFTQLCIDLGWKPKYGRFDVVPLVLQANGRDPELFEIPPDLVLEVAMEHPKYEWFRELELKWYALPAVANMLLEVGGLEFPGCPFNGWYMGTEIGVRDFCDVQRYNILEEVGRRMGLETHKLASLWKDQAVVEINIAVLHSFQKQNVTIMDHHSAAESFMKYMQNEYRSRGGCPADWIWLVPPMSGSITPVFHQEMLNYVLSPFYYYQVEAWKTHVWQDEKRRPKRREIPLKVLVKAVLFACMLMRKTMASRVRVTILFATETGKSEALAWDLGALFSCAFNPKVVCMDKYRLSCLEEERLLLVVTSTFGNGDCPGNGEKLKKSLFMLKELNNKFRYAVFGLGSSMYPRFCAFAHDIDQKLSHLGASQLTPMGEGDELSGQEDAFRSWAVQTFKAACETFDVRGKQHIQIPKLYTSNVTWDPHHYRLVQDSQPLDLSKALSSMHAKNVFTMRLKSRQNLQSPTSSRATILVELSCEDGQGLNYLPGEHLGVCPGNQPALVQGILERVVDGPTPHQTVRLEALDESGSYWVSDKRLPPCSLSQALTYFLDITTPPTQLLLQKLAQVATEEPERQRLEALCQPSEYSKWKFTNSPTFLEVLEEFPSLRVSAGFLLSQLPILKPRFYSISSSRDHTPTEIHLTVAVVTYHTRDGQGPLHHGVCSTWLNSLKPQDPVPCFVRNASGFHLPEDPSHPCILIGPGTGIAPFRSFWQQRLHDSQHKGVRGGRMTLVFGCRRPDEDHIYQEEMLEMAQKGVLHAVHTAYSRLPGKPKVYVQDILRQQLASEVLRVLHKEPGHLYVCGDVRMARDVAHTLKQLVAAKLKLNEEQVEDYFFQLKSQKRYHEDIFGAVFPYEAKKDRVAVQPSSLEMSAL

Take `Cc1ncccc1C(=O)N(Cc1cc(=O)[nH]c2c(F)cccc12)c1cccc(Cl)c1` [Example 71, N-(3-Chlorophenyl)-N-((8-fluoro-2-oxo-1,2-dihydroquinolin-4-yl)methyl)-2-methylnicotinamide]: the EC50 is greater than 5 µM. As for `Cc1ncsc1C(=O)N(Cc1cc(=O)[nH]c2ccccc12)c1cccc(C(F)(F)F)c1` [Example 40, 4-Methyl-N-((2-oxo-1,2-dihydroquinolin-4-yl)methyl)-N-(3-(trifluoromethyl)phenyl)thiazole-5-carboxamide], the figure is greater than 5 µM. `CCC(CC)c1nc2ccccc2n1Cc1cc(=O)[nH]c2c(F)c(F)ccc12` [Example 217, 7,8-Difluoro-4-((2-(pentan-3-yl)-1H-benzo[d]imidazol-1-yl)methyl)quinolin-2(1H)-one]: the EC50 is no more than 5 µM. On to `Cc1nc(-c2cccc(Cl)c2)n(Cc2cc(=O)[nH]c3c(F)c(F)ccc23)c1C` [Example 257, 4-((2-(3-Chlorophenyl)-4,5-dimethyl-1H-imidazol-1-yl)methyl)-7,8-difluoroquinolin-2(1H)-one], for which the EC50 was no more than 5 µM.

Take `Cc1ncsc1C(=O)N(Cc1cc(=O)[nH]c2c(F)c(F)ccc12)c1cccc2ccccc12` [Example 179, N-(1-Naphthalene)-N-((7,8-fluoro-2-oxo-1,2-dihydroquinolin-4-yl)methyl)-4-methylthiazole-5-carboxamide]: the EC50 was no more than 5 µM. As for `O=C(Cc1ccccc1)N(Cc1cc(=O)[nH]c2ccccc12)c1ccccc1` [Example 25, N-((2-Oxo-1,2-dihydroquinolin-4-yl)methyl)-N,2-diphenylacetamide], the figure is no more than 5 µM; as for `Cc1ccccc1C(=O)N(Cc1cc(=O)[nH]c2c(F)cccc12)c1cccc(Cl)c1` [Example 57, N-(3-Chlorophenyl)-N-((8-fluoro-2-oxo-1,2-dihydroquinolin-4-yl)methyl)-2-methylbenzamide], greater than 5 µM; as for `O=C(c1cc(=O)[nH]c2c(F)cccc12)N(Cc1cscn1)c1cccc(Cl)c1` [Example 105, N-(3-Chlorophenyl)-8-fluoro-2-oxo-N-(thiazol-4-ylmethyl)-1,2-dihydroquinoline-4-carboxamide], greater than 5 µM.

`Cc1ccc2[nH]c(=O)cc(CN(C(=O)c3ccco3)c3ccccc3)c2c1` [Example 21, N-((6-Methyl-2-oxo-1,2-dihydroquinolin-4-yl)methyl)-N-phenylfuran-2-carboxamide] had an EC50 of no more than 5 µM.

For `Cc1ncsc1C(=O)N(Cc1cc(=O)[nH]c2c(F)c(F)ccc12)c1ccccn1` [Example 264, N-((7,8-Difluoro-2-oxo-1,2-dihydroquinolin-4-yl)methyl)-4-methyl-N-(pyridin-2-yl)thiazole-5-carboxamide], the EC50 is greater than 5 µM. On to `CC(C)C(=O)N(Cc1cc(=O)[nH]c2c(F)cccc12)c1cccc(Cl)c1` [Example 80, N-(3-Chlorophenyl)-N-((8-fluoro-2-oxo-1,2-dihydroquinolin-4-yl)methyl)isobutyramide], for which the EC50 was greater than 5 µM. As for `Cc1ncsc1C(=O)N(Cc1cc(=O)[nH]c2c(F)cccc12)c1ccc(F)c(Cl)c1` [Example 85, N-(3-Chloro-4-fluorophenyl)-N-((8-fluoro-2-oxo-1,2-dihydroquinolin-4-yl)methyl)-4-methylthiazole-5-carboxamide], the EC50 was no more than 5 µM. Next, `O=C(c1ccccc1)N(Cc1cc(=O)[nH]c2ccccc12)c1ccccc1` [Example 6, N-[(2-Oxo-1,2-dihydroquinolin-4-yl)methyl]-N-phenylbenzamide]: greater than 5 µM; `O=c1cc(CN(CCCc2ccco2)c2ccccc2)c2ccccc2[nH]1` [Example 24, 4-(((3-(Furan-2-yl)propyl)(phenyl)amino)rmethyl)quinolin-2(1H)-one]: no more than 5 µM; `Cc1ncsc1C(=O)N(Cc1cc(=O)[nH]c2c(Br)ccc(F)c12)c1cccc(Cl)c1` [Example 107, N-((8-Bromo-5-fluoro-2-oxo-1,2-dihydroquinolin-4-yl)methyl)-N-(3-chlorophenyl)-4-methylthiazole-5-carboxamide]: greater than 5 µM. In turn, `O=c1cc(Cn2c(-c3cccnc3)nc3ccccc32)c2ccc(F)c(F)c2[nH]1` [Example 120, 7,8-Difluoro-4-((2-(pyridin-3-yl)-1H-benzo[d]imidazol-1-yl)methyl)quinolin-2(1H)-one] showed an EC50 greater than 5 µM. `Cc1cccc(C(=O)N(Cc2cc(=O)[nH]c3c(F)cccc23)c2cccc(Cl)c2)c1` [Example 58, N-(3-Chlorophenyl)-N-((8-fluoro-2-oxo-1,2-dihydroquinolin-4-yl)methyl)-3-methylbenzamide] yielded an EC50 greater than 5 µM. `O=c1cc(Cn2c(Cl)nc3ccccc32)c2ccc(F)c(F)c2[nH]1` [Example 203, 4-((2-Chloro-1H-benzo[d]imidazol-1-yl)methyl)-7,8-difluoroquinolin-2(1H)-one] showed an EC50 greater than 5 µM.

The compound `Cc1ncsc1-c1nc2ccccc2n1Cc1cc(=O)[nH]c2c(F)cccc12` [Example 79, 8-Fluoro-4-((2-(4-methylthiazol-5-yl)-1H-benzo[d]imidazol-1-yl)methyl)quinolin-2(1H)-one] displayed an EC50 greater than 5 µM. Turning to `Cc1nnsc1C(=O)N(Cc1cc(=O)[nH]c2c(F)c(F)ccc12)c1cccc(Cl)c1` [Example 110, N-(3-Chlorophenyl)-N-((7,8-difluoro-2-oxo-1,2-dihydroquinolin-4-yl)methyl)-4-methyl-1,2,3-thiadiazole-5-carboxamide], the EC50 was no more than 5 µM.

The compound `O=C(c1ccco1)N(Cc1cc(=O)[nH]c2ccccc12)c1ccc(Cl)cc1` [Example 2, N-(4-Chlorophenyl)-N-((2-oxo-1,2-dihydroquinolin-4-yl)methyl)furan-2-carboxamide] had an EC50 greater than 5 µM. Turning to `O=c1cc(CN(c2cccc(Cl)c2)c2ccccn2)c2cccc(F)c2[nH]1` [Example 77, 4-(((3-Chlorophenyl)(pyridin-2-yl)amino)methyl)-8-fluoroquinolin-2(1H)-one], the EC50 is greater than 5 µM. As for `O=C(c1ccco1)N(Cc1cc(=O)[nH]c2ccccc12)c1ccccc1` [Example 1, N-((2-Oxo-1,2-dihydroquinolin-4-yl)methyl)-N-phenylfuran-2-carboxamide], the EC50 was no more than 5 µM. Take `Cc1ncsc1C(=O)N(Cc1cc(=O)[nH]c2c(F)cccc12)c1cccc(Cl)c1` [Example 43, N-(3-Chlorophenyl)-N-((8-fluoro-2-oxo-1,2-dihydroquinolin-4-yl)methyl)-4-methylthiazole-5-carboxamide]: the EC50 was greater than 5 µM. As to `Cc1ncsc1C(=O)N(Cc1cc(=O)n(C)c2c(F)cccc12)c1cccc(Cl)c1` [Example 117, N-(3-Chlorophenyl)-N-((8-fluoro-1-methyl-2-oxo-1,2-dihydroquinolin-4-yl)methyl)-4-methylthiazole-5-carboxamide], the EC50 is greater than 5 µM. Turning to `O=c1cc(CN(Cc2ccco2)c2ccccc2)c2ccccc2[nH]1` [Example 22, 4-(((Furan-2-ylmethyl)(phenyl)amino)methyl)quinolin-2(1H)-one], the 50% effective concentration (EC50) was no more than 5 µM. `CC(C)C(=O)N(Cc1cc(=O)[nH]c2ccccc12)c1ccccc1` [Example 5, N-((2-Oxo-1,2-dihydroquinolin-4-yl)methyl)-N-phenylisobutyramide] had a 50% effective concentration (EC50) greater than 5 µM. As to `N#Cc1ccc(C(=O)N(Cc2cc(=O)[nH]c3c(F)cccc23)c2cccc(Cl)c2)cc1` [Example 66, N-(3-Chlorophenyl)-4-cyano-N-((8-fluoro-2-oxo-1,2-dihydroquinolin-4-yl)methyl)benzamide], the EC50 was greater than 5 µM. Take `Cc1ccc(N(Cc2cc(=O)[nH]c3ccccc23)C(=O)c2ccco2)cc1` [Example 11, N-(4-Methylphenyl)-N-[(2-oxo-1,2-dihydroquinolin-4-yl)methyl]-2-furamide]: the EC50 was no more than 5 µM. `Cc1cccnc1C(=O)N(Cc1cc(=O)[nH]c2ccccc12)c1ccccc1` [Example 38, 3-Methyl-N-((2-oxo-1,2-dihydroquinolin-4-yl)methyl)-N-phenylpicolinamide]: the EC50 is greater than 5 µM. `CN(C)c1cccc(C(=O)N(Cc2cc(=O)[nH]c3c(F)cccc23)c2cccc(Cl)c2)c1` [Example 75, N-(3-Chlorophenyl)-3-(dimethylamino)-N-((8-fluoro-2-oxo-1,2-dihydroquinolin-4-yl)methyl)benzamide]: the EC50 is greater than 5 µM. Turning to `O=c1cc(Cn2c(C3CCNCC3)nc3ccccc32)c2ccc(F)c(F)c2[nH]1` [Example 212, 7,8-Difluoro-4-((2-(piperidin-4-yl)-1H-benzo[d]imidazol-1-yl)methyl)quinolin-2(1H)-one], the EC50 was greater than 5 µM. Compound `O=c1cc(Cn2c(-c3ccccc3C(F)(F)F)nc3ccccc32)c2ccc(F)c(F)c2[nH]1` [Example 245, 7,8-Difluoro-4-((2-(2-(trifluoromethyl)phenyl)-1H-benzo[d]imidazol-1-yl)methyl)quinolin-2(1H)-one] had an EC50 of no more than 5 µM. `Cn1ccnc1C(=O)N(Cc1cc(=O)[nH]c2c(F)cccc12)c1cccc(Cl)c1` [Example 47, N-(3-Chlorophenyl)-N-((8-fluoro-2-oxo-1,2-dihydroquinolin-4-yl)methyl)-1-methyl-1H-imidazole-2-carboxamide] returned an EC50 greater than 5 µM. Compound `Cc1ncsc1C(=O)N(Cc1cc(=O)[nH]c2c(F)c(F)ccc12)C1CC1` [Example 86, N-Cyclopropyl-N-((7,8-fluoro-2-oxo-1,2-dihydroquinolin-4-yl)methyl)-4-methylthiazole-5-carboxamide] displayed an EC50 greater than 5 µM. As for `O=C(c1ccco1)N(Cc1cc(=O)[nH]c2c(F)cccc12)c1ccccc1` [Example 17, N-((8-Fluoro-2-oxo-1,2-dihydroquinolin-4-yl)methyl)-N-phenylfuran-2-carboxamide], the figure is greater than 5 µM. For `Cc1cccnc1C(=O)N(Cc1cc(=O)[nH]c2c(F)cccc12)c1cccc(Cl)c1` [Example 73, N-(3-Chlorophenyl)-N-((8-fluoro-2-oxo-1,2-dihydroquinolin-4-yl)methyl)-3-methylpicolinamide], the EC50 was greater than 5 µM.

Values taken from patent US20080139558A1, “QUINOLONES USEFUL AS INDUCIBLE NITRIC OXIDE SYNTHASE INHIBITORS” (KALYPSYS, INC., priority 2006, published 2008).
